Data taken from patent publication US6391878B2, “Guanidinyl heterocycle compounds useful as alpha-2 adrenoceptor agonists” (The Procter & Gamble Company, priority 1996, dated 2002).

Experiments:
[1] = system: patient with nasal congestion; assay: Composition given to a patient with nasal congestion; type: in vivo, human
Description: One tablet is swallowed by a patient with nasal congestion.
One tablet is chewed and swallowed by a patient with nasal congestion.
One tablet is placed under the tongue of a patient with nasal congestion and allowed to dissolve.
One-tenth of a mL of the composition is sprayed from a pump actuator into each nostril of a patient with nasal congestion.
One-fifth of a mL of the composition is applied as drops from a dropper into each nostril of a patient with riasal congestion.
One 15 mL dose of the alcohol-free liquid medication is swallowed by a patient with nasal congestion.

patient with asthma = assay: Inhalation aerosol given to a patient with asthma; type: in vivo, human; settings: Example F inhalation aerosol 5.0 % w/v, two puffs from a metered-dose inhaler
Description: Two-puffs of the aerosol composition is inhaled from a metered-dose inhaler by a patient with asthma.

patient with glaucoma = assay: Topical ophthalmic composition given to a patient with glaucoma, intraocular pressure; type: in vivo, human; settings: Example G topical ophthalmic composition 0.10 % w/v, one-tenth of a mL into each eye
Description: One-tenth of a mL of the composition is administered directly into each eye of a patient with glaucoma.

patient with migraine = assay: Oral tablet given to a patient with migraine; type: in vivo, human; settings: Example K oral tablet, 4 mg per tablet, one tablet swallowed
Description: One tablet is swallowed by a patient with migraine.

[2] = system: human subject suffering from septic or cardiogenic shock; assay: Intravenous solution given to a human subject suffering from septic or cardiogenic shock; type: in vivo; settings: Example T parenteral solution 10 mg/ml carrier, approximately 2.0 ml intravenously
Description: The above ingredients are mixed, forming a solution. Approximately 2.0 ml of the solution is administered, intravenously, to a human subject suffering from septic or cardiogenic shock. The symptoms subside.

[3] = system: patient with nasal congestion and runny nose due to allergic rhinitis; assay: Oral liquid given to a patient with nasal congestion and runny nose due to allergic rhinitis; type: in vivo, human; settings: Example H oral liquid, 15 mg per 15 mL dose, with chlorpheniramine maleate 4 mg, one dose swallowed
Description: One 15 mL dose of the liquid composition is swallowed by a patient with nasal congestion and runny nose due to allergic rhinitis.

Compound: Cc1cc(NC(=N)N)c(C)c2[nH]cnc12 [Subject Compound 2, (4,7-Dimethylbenzimidazol-5-yl)guanidine]
- nasal congestion ([1]; Example J alcohol-free oral liquid, 30 mg per 15 mL dose, one dose swallowed): substantially diminished
- asthmatic condition (patient with asthma): effectively relieved

Compound: Cc1nc2c(C)c(NC(=N)N)ccc2[nH]1 [Subject Compound 3, (2,4-Dimethylbenzimidazol-5-yl)quanidine]
- nasal congestion ([1]; Example D intranasal solution 0.20 % w/v, one-tenth of a mL sprayed into each nostril): substantially diminished

Compound: N=C(N)Nc1ccc2nc[nH]c2c1Br [Subject Compound 5, (4-Bromobenzimidazol-5-yl)guanidine]
- nasal congestion ([1]; Example C sublingual tablet, 2.00 mg per tablet, dissolved under the tongue): rapidly and substantially diminished
- intraocular pressure (patient with glaucoma): substantially reduced

Compound: Cc1c(NC(=N)N)ccc2nc[nH]c12 [Subject Compound 1, (4-Methylbenzimidazol-5-yl)guanidine]
- nasal congestion ([1]; Example B chewable tablet, 15.0 mg per tablet, one tablet chewed and swallowed): substantially reduced
- nasal congestion ([1]; Example E intranasal gel 0.10 % w/v, one-fifth of a mL as drops into each nostril): substantially reduced
- pain and aura of migraine (patient with migraine): substantially diminished
- symptoms of septic or cardiogenic shock [2]: subside

Compound: Cc1c(NC(=N)N)ccc2c1ncn2C [Subject Compound 4, (1,4-Dimethylbenzimidazol-5-yl)quanidine]
- nasal congestion ([1]; Example A oral tablet, 20.0 mg per tablet, one tablet swallowed): substantially diminished
- congestion and runny nose [3]: effectively reduced
